# What was measured:
# [1] = molecular target: T1, Prostaglandin E2 receptor EP3 subtype (Homo sapiens) (UniProt P43115); test: Agonist activity at human EP3 receptor expressed in […] cells at 10 uM by spectrophotometric method relative to control; assay type: cell-based
# T1 sequence (whole entry): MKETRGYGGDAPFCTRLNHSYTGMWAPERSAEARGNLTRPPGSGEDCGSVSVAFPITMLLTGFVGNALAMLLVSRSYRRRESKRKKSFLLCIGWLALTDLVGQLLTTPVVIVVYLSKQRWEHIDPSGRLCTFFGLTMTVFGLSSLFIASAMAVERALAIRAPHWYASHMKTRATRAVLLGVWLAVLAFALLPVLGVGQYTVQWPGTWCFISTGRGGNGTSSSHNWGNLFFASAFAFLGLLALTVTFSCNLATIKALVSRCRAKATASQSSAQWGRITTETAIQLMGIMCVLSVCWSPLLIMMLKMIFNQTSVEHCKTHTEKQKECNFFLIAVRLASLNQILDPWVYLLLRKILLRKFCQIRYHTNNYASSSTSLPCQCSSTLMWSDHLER
# [2] = molecular target: Histamine H3 receptor (Homo sapiens) (UniProt Q9Y5N1); test: Antagonist activity at human histamine H3 receptor expressed in CHO-K1 cells at 10 uM after 10 mins by HTRF assay relative to control; assay type: cell-based; design: scale not given: the % may be the effect or the level left
# Sequence of Histamine H3 receptor (Homo sapiens) (Q9Y5N1 whole entry): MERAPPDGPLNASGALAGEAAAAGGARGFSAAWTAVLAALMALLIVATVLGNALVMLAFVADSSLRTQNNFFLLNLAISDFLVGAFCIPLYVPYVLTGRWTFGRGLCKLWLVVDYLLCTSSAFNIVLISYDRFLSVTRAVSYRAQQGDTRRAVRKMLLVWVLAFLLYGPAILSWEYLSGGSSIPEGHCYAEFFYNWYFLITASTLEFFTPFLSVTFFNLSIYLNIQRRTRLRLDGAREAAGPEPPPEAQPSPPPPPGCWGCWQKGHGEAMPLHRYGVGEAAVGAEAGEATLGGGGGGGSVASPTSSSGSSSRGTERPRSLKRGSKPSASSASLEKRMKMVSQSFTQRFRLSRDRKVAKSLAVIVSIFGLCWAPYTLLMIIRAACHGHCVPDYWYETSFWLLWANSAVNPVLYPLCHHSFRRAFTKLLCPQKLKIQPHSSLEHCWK
# [3] = Clearance in Han Wistar rat hepatocytes at 1 uM measured after 2 to 90 mins by LC-MS/MS analysis; assay type: ADME, cell-based, Hepatocyte
# [4] = Apparent permeability across basolateral to apical side in human Caco2 cells at 2 uM after 2 hrs by LC-MS/MS analysis; assay type: ADME, cell-based; details: Caco-2
# [5] = tested on: Rattus norvegicus; test: Effect on folliculo-genesis in 4 day cycle of po dosed normally cycling female rat assessed as induction of cycle arrest in metestrus stage by observing vaginal smears administered once daily for 8 days and measured for 2 cycle-stage; assay type: functional, organism-based
# [6] = molecular target: T2, Muscarinic acetylcholine receptor M1 (Homo sapiens) (UniProt P11229); test: Antagonist activity at human muscarinic M1 receptor expressed in CHO-K1 cells at 10 uM by fluorimetric method relative to control; assay type: cell-based; design: scale not given: the % may be the effect or the level left
# T2 sequence (whole entry): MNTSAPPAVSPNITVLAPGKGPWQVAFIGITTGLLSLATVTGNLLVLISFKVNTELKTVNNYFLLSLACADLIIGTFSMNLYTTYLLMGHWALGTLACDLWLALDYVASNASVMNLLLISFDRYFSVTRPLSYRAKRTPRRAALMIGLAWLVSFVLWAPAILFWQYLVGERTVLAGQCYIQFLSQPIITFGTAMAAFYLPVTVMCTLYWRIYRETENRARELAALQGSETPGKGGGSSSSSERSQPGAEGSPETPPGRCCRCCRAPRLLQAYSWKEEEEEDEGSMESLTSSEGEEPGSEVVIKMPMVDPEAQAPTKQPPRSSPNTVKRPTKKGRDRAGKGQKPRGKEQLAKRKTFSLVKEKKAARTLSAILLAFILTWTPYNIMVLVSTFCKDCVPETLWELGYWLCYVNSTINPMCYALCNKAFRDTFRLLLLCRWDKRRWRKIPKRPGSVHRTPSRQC
# [7] = tested on: Rattus norvegicus; test: Downregulation of estradiol level in proestrus staged-female rat serum at 72 mg/kg, po administered once daily for 8 days and measured by radioimmunoassay method (reference value: 125 pmol/L); assay type: functional
# [8] = Toxicity in female rat assessed as reduction in body weight; details: in vivo
# [9] = molecular target: Mu-type opioid receptor (Homo sapiens) (UniProt P35372); test: Agonist activity at human mu opioid receptor expressed in CHO-K1 cells at 10 uM after 10 mins by HTRF assay relative to control; assay type: cell-based
# Sequence of Mu-type opioid receptor (Homo sapiens) (P35372 whole entry): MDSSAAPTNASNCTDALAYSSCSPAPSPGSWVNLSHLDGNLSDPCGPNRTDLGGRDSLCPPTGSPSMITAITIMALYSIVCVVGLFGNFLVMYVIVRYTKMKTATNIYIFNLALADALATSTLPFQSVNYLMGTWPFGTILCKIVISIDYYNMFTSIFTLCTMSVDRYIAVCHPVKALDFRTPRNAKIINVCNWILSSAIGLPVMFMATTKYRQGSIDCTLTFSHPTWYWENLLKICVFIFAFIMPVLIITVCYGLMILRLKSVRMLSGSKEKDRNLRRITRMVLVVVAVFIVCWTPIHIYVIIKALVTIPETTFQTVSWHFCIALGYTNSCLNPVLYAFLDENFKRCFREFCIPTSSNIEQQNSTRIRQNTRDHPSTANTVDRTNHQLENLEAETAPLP
# [10] = tested on: Rattus norvegicus; test: Downregulation of 0.3 ug human luteinizing hormone-induced testosterone expression in plasma of cetrorelix-treated male rat at 14 mg/kg, iv after 2 hrs by radioimmunoassay method (reference value: 33.4 nM); assay type: functional
# [11] = molecular target: Beta-1 adrenergic receptor (Homo sapiens) (UniProt P08588); test: Antagonist activity at human beta1 adrenergic receptor expressed in HEK293 cells at 10 uM after 30 mins HTRF assay relative to control; assay type: cell-based; design: scale not given: the % may be the effect or the level left
# Sequence of Beta-1 adrenergic receptor (Homo sapiens) (P08588 whole entry, looked up): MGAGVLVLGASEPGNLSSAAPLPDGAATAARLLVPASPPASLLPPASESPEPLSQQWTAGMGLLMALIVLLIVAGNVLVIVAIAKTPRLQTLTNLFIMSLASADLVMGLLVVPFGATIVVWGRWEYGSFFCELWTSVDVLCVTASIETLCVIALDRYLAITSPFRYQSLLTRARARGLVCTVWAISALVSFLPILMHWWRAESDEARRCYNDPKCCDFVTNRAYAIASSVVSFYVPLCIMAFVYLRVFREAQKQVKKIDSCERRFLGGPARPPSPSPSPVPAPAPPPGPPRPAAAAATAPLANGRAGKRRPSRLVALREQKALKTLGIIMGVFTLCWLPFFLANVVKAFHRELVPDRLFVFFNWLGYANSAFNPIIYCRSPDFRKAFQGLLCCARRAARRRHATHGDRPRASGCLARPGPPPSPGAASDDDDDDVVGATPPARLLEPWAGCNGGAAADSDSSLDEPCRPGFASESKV
# [12] = molecular target: T3, Lutropin-choriogonadotropic hormone receptor (Homo sapiens, UniProt P22888); test: (§1) Negative allosteric modulation of human luteinizing hormone receptor assessed as Emax for Org 43553-induced agonist activity at 0.84 nM to 17 uM preincubated for 20 mins followed by 100 times EC80 of agonist addition and measured after 60 mins by cell based TR-FRET assay relative to control
# T3 sequence (P22888 whole entry): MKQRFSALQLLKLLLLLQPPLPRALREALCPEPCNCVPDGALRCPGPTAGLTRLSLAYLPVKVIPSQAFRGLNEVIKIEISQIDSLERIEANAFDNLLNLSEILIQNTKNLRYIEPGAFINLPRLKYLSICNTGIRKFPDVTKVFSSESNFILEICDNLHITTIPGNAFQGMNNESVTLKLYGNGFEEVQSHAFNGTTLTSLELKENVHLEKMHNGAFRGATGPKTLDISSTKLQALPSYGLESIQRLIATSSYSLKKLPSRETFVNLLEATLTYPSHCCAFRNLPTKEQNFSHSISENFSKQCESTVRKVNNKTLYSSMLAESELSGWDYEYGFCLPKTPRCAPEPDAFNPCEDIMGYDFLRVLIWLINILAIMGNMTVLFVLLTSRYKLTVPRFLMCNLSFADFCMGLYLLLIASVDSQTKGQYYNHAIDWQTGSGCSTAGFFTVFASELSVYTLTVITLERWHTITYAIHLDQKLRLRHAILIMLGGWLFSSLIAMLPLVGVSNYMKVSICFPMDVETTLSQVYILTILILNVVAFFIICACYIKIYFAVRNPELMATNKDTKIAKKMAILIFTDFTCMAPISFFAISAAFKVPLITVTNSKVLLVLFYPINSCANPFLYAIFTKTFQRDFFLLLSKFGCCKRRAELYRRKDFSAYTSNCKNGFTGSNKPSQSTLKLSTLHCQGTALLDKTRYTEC
# [13] = molecular target: T3, Lutropin-choriogonadotropic hormone receptor; test: Negative allosteric modulation of human luteinizing hormone receptor assessed as reduction in Org 43553-induced agonist activity preincubated for 20 mins followed by 1 times EC80 of agonist addition and measured after 60 mins by cell based TR-FRET assay relative to control
# [14] = Maximum oral bioavailability in Han Wistar rat hepatocytes at 1 uM measured after 2 to 90 mins by LC-MS/MS analysis; assay type: ADME, Hepatocyte; details: read-out: Fmax
# [15] = molecular target: Beta-1 adrenergic receptor (Homo sapiens) (UniProt P08588); test: Agonist activity at human beta1 adrenergic receptor expressed in HEK293 cells at 10 uM after 30 mins HTRF assay relative to control; assay type: cell-based
# [16] = molecular target: Luteinizing hormone/choriogondaotropin receptor (Macaca fascicularis, UniProt F5A8F7); test: Antagonist activity at cynomolgus monkey luteinizing hormone receptor expressed in HEK293 cells assessed as reduction in agonist-induced cAMP production preincubated for 30 mins followed by agonist solution addition and measured after 30 mins by cell based TR-FRET assay
# Sequence of Luteinizing hormone/choriogondaotropin receptor (F5A8F7 whole entry): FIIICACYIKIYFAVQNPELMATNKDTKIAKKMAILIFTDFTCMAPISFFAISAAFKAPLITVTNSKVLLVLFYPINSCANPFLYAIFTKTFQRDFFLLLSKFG
# [17] = molecular target: 5-hydroxytryptamine receptor 6 (Homo sapiens) (UniProt P50406); test: Agonist activity at human 5-HT6 receptor expressed in CHO-K1 cells at 10 uM after 30 mins by HTRF assay relative to control; assay type: cell-based
# Sequence of 5-hydroxytryptamine receptor 6 (Homo sapiens) (P50406 whole entry): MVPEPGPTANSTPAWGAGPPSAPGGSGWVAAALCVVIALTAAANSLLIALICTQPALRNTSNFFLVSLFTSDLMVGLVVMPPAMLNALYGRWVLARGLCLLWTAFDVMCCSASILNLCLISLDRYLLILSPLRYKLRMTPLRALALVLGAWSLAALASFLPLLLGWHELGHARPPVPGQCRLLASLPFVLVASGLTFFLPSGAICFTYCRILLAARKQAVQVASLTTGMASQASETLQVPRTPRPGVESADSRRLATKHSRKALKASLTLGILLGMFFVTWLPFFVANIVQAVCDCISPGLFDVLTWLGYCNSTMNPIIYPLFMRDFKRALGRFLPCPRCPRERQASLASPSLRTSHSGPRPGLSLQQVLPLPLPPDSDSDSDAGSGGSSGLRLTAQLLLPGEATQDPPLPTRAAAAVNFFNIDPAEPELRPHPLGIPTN
# [18] = tested on: Rattus norvegicus; test: Downregulation of estradiol level in proestrus staged-female rat serum at 18 mg/kg, po administered once daily for 8 days and measured by radioimmunoassay method (reference value: 125 pmol/L); assay type: functional
# [19] = molecular target: T3, Lutropin-choriogonadotropic hormone receptor; test: as §1, with “glycoprotein human luteinizing hormone-induced” for “Org 43553-induced”, “16” for “100”; details: at 0.00084 to 17 µM
# [20] = Volume of distribution at steady state in Wistar rat at 0.5 mg/kg, iv after 2 to 72 hrs by LC-MS/MS analysis; assay type: ADME, organism-based; details: in vivo, read-out: Vdss
# [21] = tested on: Rattus norvegicus; test: Downregulation of human luteinizing hormone-induced Egr-1 mRNA expression in cetrorelix-treated iv dosed female rat after 2 hrs by Taqman probe based RT-PCR analysis; assay type: functional, organism-based
# [22] = molecular target: T3, Lutropin-choriogonadotropic hormone receptor; test: Negative allosteric modulation of human luteinizing hormone receptor assessed as reduction in Org 43553-induced agonist activity preincubated for 20 mins followed by 10 times EC80 of agonist addition and measured after 60 mins by cell based TR-FRET assay relative to control
# [23] = molecular target: 5-hydroxytryptamine receptor 6 (Homo sapiens) (UniProt P50406); test: Antagonist activity at human 5-HT6 receptor expressed in CHO-K1 cells at 10 uM after 30 mins by HTRF assay relative to control; assay type: cell-based; design: scale not given: the % may be the effect or the level left
# [24] = Clearance in human liver microsomes at 1 uM measured after 2 to 60 mins in presence of glucose-6-phosphate by LC-MS/MS analysis; assay type: ADME, Microsome
# [25] = Maximum oral bioavailability in human liver microsomes based well stirred liver model at 1 uM measured after 2 to 60 mins in presence of glucose-6-phosphate by LC-MS/MS analysis; assay type: ADME, Microsome; details: read-out: Fmax
SMILES,Activity [1] [%],Activity [2] [%],CLH [3] [mL/min/kg],"Papp B→A at 2 h, 2 µM [4] [×10⁻⁶ cm/s]",Activity [6] [%],Activity [8],Activity [9] [%],Activity [11] [%],Fh at 1 µM [14] [%],Activity [15] [%],Activity [17] [%],Vd [20] [L/kg],Activity [23] [%],CLhep predicted at 1 µM [24] [mL/min/kg],Fh at 1 µM [25] [%],other results
O=C(Nc1ccc(Oc2ccc(F)cc2)cc1)N1CCc2ncccc2[C@@H]1c1ccc(Cl)cc1,< 70,< 70,18.3,2,< 70,Non-Toxic,< 70,< 70,74,< 70,< 70,1.8,< 70,3.33,85,Activity [5]: Dose-dependent effect; Activity [7]: <39 pmol/L; Activity [10]: 12.6 nM; Emax [12]: 93%; IC50 [13]: 650 nM; IC50 [16]: 78 nM; Activity [18]: 70 pmol/L; Emax [19]: 109%; Activity [21]: Dose-dependent effect; IC50 [22]: 1500 nM
O=C(Nc1cnc(Oc2ccc(F)cc2)nc1)N1CCc2ncccc2[C@@H]1c1ccc(F)cc1 [BAY-899],< 70,< 70,21.7,9.5,< 70,Non-Toxic,< 70,< 70,68,< 70,< 70,16,< 70,1.67,89,–
